Experimental data as given in patent publication US20090036384A1, “INCREASING PREGNANCY RATES” (PARNELL LABORATORIES (AUST) PTY LIMITED, priority 2005, published 2009).
Read-outs that look alike come from different tables or passages of the source. Blank lines part the entries; values can stand above or below the molecule they belong to.

Tests used:
LH [1] = conditions: in vivo; cited from earlier work
LH [2] = conditions: exogenous GnRH; cited from earlier work
cows [3] = conditions: cited from earlier work
[4] = literature study; cited from earlier work
[5] = Progesterone solubility trials; type: physicochemical
Experimental: The purpose of the formulation studies was to establish a product vehicle that was suitable for solubilisation of a relatively high concentration of Progesterone but in which Gonadorelin would be stable. […] Low solubility of Progesterone (even in organic solvents) further limited the choice of injectable organic vehicles.
Further Solubility Trials were conducted as follows: […]

[6] = Progesterone solubility and precipitation at low temperature (2-8° C.); type: physicochemical; conditions: solubility study; most appropriate combination
Experimental: Since addition of acids reduced the amount of NMP available for dissolution of Progesterone, samples prepared with different acids were refrigerated at 2-8° C. to investigate progesterone solubility and the occurrence of precipitation at low temperatures. The appearance of crystals in samples prepared with formic and hydrochloric acid was obvious after several hours of refrigeration. Crystals appeared after 1-2 days in samples prepared with phosphoric acid. FTIR testing confirmed that the precipitate was crystalline progesterone, which was difficult to redissolve due to the crystalline form of the precipitate. At this stage a further search for vehicle that would provide sufficient progesterone solubility at low temperatures was conducted. […] A solubility study confirmed that the most appropriate combination was NMP+water+phosphoric acid with progesterone amount not exceeding 8-10% w/v.

cows [7] = conditions: cited from earlier work; remark: listed apart in the source

Compound: C[C@]12CC[C@@H]3c4ccc(O)cc4CC[C@H]3[C@@H]1CC[C@@H]2OC(=O)CCC1CCCC1 [ECP, Estradiol Cypionate]
time of LH surge after administration (LH [1]): around 40 hours

Compound: CC(C)C[C@H](NC(=O)CNC(=O)[C@H](Cc1ccc(O)cc1)NC(=O)[C@H](CO)NC(=O)[C@H](Cc1c[nH]c2ccccc12)NC(=O)[C@H](Cc1cnc[nH]1)NC(=O)[C@@H]1CCC(=O)N1)C(=O)N[C@@H](CCCNC(=N)N)C(=O)N1CCC[C@H]1C(=O)NCC(N)=O [GnRH]
duration of GnRH-induced LH surge (LH [2]): 7 to 14 h
peak serum levels of LH (LH [2]): 9 to 22 ng/mL
ovulation rate (cows [3]; 25 μg of GnRH): dramatic reduction in ovulation rates
ovulation rate (cows [3]; 50 μg of GnRH): identical ovulation rate to 100 μg

Compound: CN1CCCC1=O [NMP, N-methyl-2-pyrrolidone]
pH of NMP [4]: approximately 11.5

Solubility of Progesterone ([5]; pure solvent PEG400): marginal
Solubility of Progesterone ([5]; pure solvent Propylene Glycol): marginal
Solubility of Progesterone ([5]; pure solvent Tetraglycol): marginal
progesterone amount in NMP+water+phosphoric acid [6]: 8-10 % w/v
Compound: CC(=O)[C@H]1CC[C@H]2[C@@H]3CCC4=CC(=O)CC[C@]4(C)[C@H]3CC[C@]12C [Progesterone]
average serum progesterone levels (cows [7]; beef cows primed via a used CIDR implant): 1.5 ng/mL
serum Progesterone levels that provide effective biological activity (cows [7]; in vivo): 1-3 ng/mL
follicle size (cows [7]; three days of progesterone treatment): 13.7 mm
